Experimental data from US8026359B2, “Fungicidal heterocyclic amines” (E.I. du Pont de Nemours and Company, priority 2007, dated 2011).
Marks after values point to notes of the source that are not given here.

Tests used:
Type in all cases: in vivo
Botrytis cinerea = test: Test F: tomato Botrytis, preventive spray on tomato seedlings; settings: for pest or weed control at 200 ppm: Botrytis cinerea, 120 h, read-out: Test F disease control rating
Source text: (§1) General protocol for preparing test suspensions for Tests A-R: The test compounds were first dissolved in acetone in an amount equal to 3% of the final volume and then suspended at the desired concentration (in ppm) in acetone and purified water (50/50 mix) containing 250 ppm of the surfactant Trem® 014 (polyhydric alcohol esters). The resulting test suspensions were then used in tests A-R. In Tests A-M, compounds were sprayed as a 200 ppm test suspension (equivalent to a rate of 500 g/ha) or as a 40 ppm test suspension to the point of runoff on the test plants. In Tests N-R, compounds were sprayed as a 100 g/ha test suspension (equivalent to a rate of 100 ppm) on the test plants at an application volume of 1000 L/ha. The test suspension was sprayed to the point of run-off on tomato seedlings.

Septoria tritici = test: Test D: wheat leaf blotch, preventive spray on wheat seedlings; settings: 200 ppm, 100 = 100% disease control, 0 = no control relative to controls; for pest or weed control at 200 ppm: Zymoseptoria tritici, 504 h, read-out: Test D disease control rating
Source text: as §1, with “wheat” for “tomato”

Septoria nodorum = test: Test C: wheat glume blotch, preventive spray on wheat seedlings; settings: 200 ppm, 100 = 100% disease control, 0 = no control relative to controls; for pest or weed control at 200 ppm: Parastagonospora nodorum, 216 h, read-out: Test C disease control rating
Source text: as §1, with “wheat” for “tomato”

[1] = system: Colletotrichum orbiculare; test: Test I: cucumber Colletotrichum anthracnose, preventive spray on cucumber seedlings; settings: 100 = 100% disease control, 0 = no control relative to controls; for pest or weed control at 200 ppm: Colletotrichum orbiculare, 144 h, read-out: Test I disease control rating; for Test I disease control rating: 200 ppm
Source text: as §1, with “cucumber” for “tomato”

[2] = system: Puccinia recondita f. sp. tritici; test: Test B: wheat leaf rust, preventive spray on wheat seedlings; settings: 200 ppm, 100 = 100% disease control, 0 = no control relative to controls; for pest or weed control at 200 ppm: Puccinia recondita, 192 h, read-out: Test B disease control rating
Source text: as §1, with “wheat” for “tomato”

Fusarium graminearum = test: whole plant or invertebrate; settings: for pest or weed control at 200 ppm: Fusarium graminearum, in Triticum aestivum, 192 h, read-out: Test E disease control rating; for Test E disease control rating: 200 ppm, 100 = 100% disease control, 0 = no control relative to controls
Alternaria solani = test: Test H: tomato early blight, preventive spray on seedlings; settings: for pest or weed control at 200 ppm: Alternaria solani, 168 h, read-out: Test H disease control rating
Source text: as §1, with “wheat” for “tomato”

[3] = system: Erysiphe graminis f. sp. tritici; test: Test A: wheat powdery mildew, preventive spray on wheat seedlings; settings: 200 ppm, 100 = 100% disease control, 0 = no control relative to controls
Source text: as §1, with “wheat” for “tomato”

[4] = 200 ppm, 100 = 100% disease control, 0 = no control relative to controls

Row | SMILES | pest or weed control at 200 ppm (Botrytis cinerea; [4]) [%] | pest or weed control at 200 ppm (Septoria tritici) [%] | pest or weed control at 200 ppm (Septoria nodorum) [%] | pest or weed control at 200 ppm [1] [%] | pest or weed control at 200 ppm [2] [%] | pest or weed control at 200 ppm (Fusarium graminearum) [%] | pest or weed control at 200 ppm (Alternaria solani; [4]) [%] | Test F disease control rating (Botrytis cinerea; [4]) [%] | Test D disease control rating (Septoria tritici) [%] | Test C disease control rating (Septoria nodorum) [%] | Test I disease control rating [1] [%] | Test B disease control rating [2] [%] | Test E disease control rating (Fusarium graminearum) [%] | Test H disease control rating (Alternaria solani; [4]) [%] | Test H disease control rating (Alternaria solani; 40 ppm (marked *)) | Test F disease control rating (Botrytis cinerea; 40 ppm (marked *)) | Test A disease control rating [3] [%] | pest or weed control at 200 ppm ([3]; Blumeria graminis, 192 h, read-out: Test A disease control rating) [%]
1 | COC[C@H](C)Nc1nccc(-c2ncnc(Nc3cccc(F)c3)n2)n1 [Compound 5, N-(3-fluorophenyl)-4-[2-[[(1S)-2-methoxy-1-methylethyl]amino]-4-pyrimidinyl]-1,3,5-triazin-2-amine] | 80 | 98 | 100 | 99 | 100 | 98 | 0 |  |  |  |  |  |  |  |  |  |  | 
2 | COCC(C)(C)Nc1nccc(-c2ncnc(Nc3cccc(F)c3)n2)n1 [Compound 6] |  |  |  |  |  |  |  | 85 | 58 | 100 | 0 | 97 | 84 | 98 |  |  |  | 
3 | CC(CO)Nc1nccc(-c2ncnc(Nc3cccc(F)c3)n2)n1 (stereo not drawn) [Compound 7] |  |  |  |  |  |  |  | 0 | 87 | 100 | 96 | 99 | 0 | 0 |  |  |  | 
4 | CC(=O)OCC(C)Nc1nccc(-c2ncnc(Nc3cccc(F)c3)n2)n1 (stereo not drawn) [Compound 8] |  |  |  |  |  |  |  | 0 | 42 | 95 | 0 | 97 | 77 | 41 |  |  |  | 
5 | Fc1cccc(Nc2ncnc(-c3ccnc(NC4CC4)n3)n2)c1 [Compound 9] |  |  |  |  |  |  |  | 73 | 20 | 99 | 100 | 100 | 80 | 99 |  |  |  | 
6 | CC(C)(C)Nc1nccc(-c2ncnc(Nc3cccc(F)c3)n2)n1 [Compound 10] |  |  |  |  |  |  |  | 0 | 10 | 100 | 99 | 93 | 61 | 97 |  |  |  | 
7 | COC[C@H](C)Nc1nccc(-c2ncnc(Nc3cccc(I)c3)n2)n1 [Compound 12] |  |  |  |  |  |  |  | 37 | 0 | 100 |  | 79 | 96 | 98 |  |  |  | 
8 | COC[C@H](C)Nc1nccc(-c2ncnc(Nc3ccc(F)cc3)n2)n1 [Compound 13] |  |  |  |  |  |  |  | 87 | 26 | 100 |  | 100 | 96 |  | 98* % |  |  | 
9 | COC[C@H](C)Nc1nccc(-c2ncnc(Nc3ccc(Cl)c(Cl)c3)n2)n1 [Compound 14] |  |  |  |  |  |  |  | 55 | 0 | 100 |  | 79 | 92 | 95 |  |  |  | 
10 | COC[C@H](C)Nc1nccc(-c2ncnc(Nc3ccc(Cl)cc3)n2)n1 [Compound 15] |  |  |  |  |  |  |  | 0 | 0 | 92 | 93 | 32 | 0 | 90 |  |  |  | 
11 | COC[C@H](C)Nc1nccc(-c2ncnc(Nc3ccccc3F)n2)n1 [Compound 17] |  |  |  |  |  |  |  | 97 | 66 | 99 | 98 | 86 | 0 | 90 |  |  |  | 
12 | COC[C@H](C)Nc1nccc(-c2ncnc(Nc3ccc(C)cc3)n2)n1 [Compound 20] |  |  |  |  |  |  |  | 99 | 20 | 100 | 0 | 74 | 91 | 96 |  |  |  | 
13 | COC[C@H](C)Nc1nccc(-c2ncnc(Nc3ccc(C)c(C)c3)n2)n1 [Compound 24] |  |  |  |  |  |  |  | 70 | 24 | 100 |  | 97 | 99 | 100 |  |  |  | 
14 | COC[C@H](C)Nc1nccc(-c2ncnc(Nc3cc(Cl)cc(Cl)c3)n2)n1 [Compound 28] |  |  |  |  |  |  |  |  | 0 | 99 | 96 | 73 | 90 | 85 |  | 84* % |  | 
15 | COC[C@H](C)Nc1nccc(-c2ncnc(Nc3ccc(F)c(F)c3)n2)n1 [Compound 29] |  |  |  |  |  |  |  | 91 | 90 | 100 |  | 100 | 99 |  | 97* % |  |  | 
16 | CSCC(C)Nc1nccc(-c2ccnc(Nc3cccc(F)c3)c2)n1 (stereo not drawn) [Compound 94, 4-[2-[(3-fluorophenyl)amino]-4-pyridinyl]-N-[1-methyl-2-(methylthio)ethyl]-2-pyrimidinamine] | 72 | 69 | 95 | 0 | 89 | 0 | 0 |  |  |  |  |  |  |  |  |  |  | 
17 | CSCC(C)Nc1nccc(-c2ccnc(Nc3cccc(Cl)c3)c2)n1 (stereo not drawn) [Compound 95, 4-[2-[(3-chlorophenyl)amino]-4-pyridinyl]-N-[1-methyl-2-(methylthio)ethyl]-2-pyrimidinamine] | 0 | 77 | 94 | 0 | 88 | 0 | 0 |  |  |  |  |  |  |  |  |  |  | 
18 | COCC(C)Nc1nccc(-c2ccnc(Nc3c(Cl)cccc3C(F)(F)F)c2)n1 (stereo not drawn) [Compound 97] |  |  |  |  |  |  |  | 99 | 67 | 100 | 93 | 97 | 48 |  |  |  | 0 | 
19 | FC(F)(F)c1cccc(Cl)c1Nc1cc(-c2ccnc(NC3CCOCC3)n2)ccn1 [Compound 98] |  |  |  |  |  |  |  | 91 | 83 | 99 | 0 | 99 | 97 |  |  |  | 89 | 
20 | COCC(C)Nc1nccc(-c2cc(Nc3cccc(F)c3)ncn2)n1 (stereo not drawn) [Compound 109, N^6′-(3-fluorophenyl)-N^2-(2-methoxy-1-methylethyl) [4,4′-bipyrimidine]-2,6′-diamine] | 0 | 5 | 94 | 9 | 96 | 0 |  |  |  |  |  |  |  |  |  |  |  | 0
